Experimental findings from patent US4659727A, “Ethene derivatives” (May & Baker Limited, priority 1984, dated 1987) are described below.

Some results are limits rather than exact numbers.

The test system of one assay is mouse macrophage cells. The experiment in a line: reduction by 50% of inhibition of migration of incubated mouse macrophage cells (antagonism or reduction of lymphokine levels). Type of assay: in vivo. Particulars: po, twice: one hour before and four hours after antigen, each time at the dose shown, mice. Here is the method:
For example, from tests in mice it was calculated that compounds of formula I, when twice administered orally, one hour before and four hours after the administration of antigen, each time at the doses shown in the following Table I, would reduce by 50% the inhibition of migration of incubated mouse macrophage cells measured in a manner similar to that described by Likhite et al, Cellular Immunology, Vol 5, 1972, page 377. This is a measure of antagonism or reduction of the levels of lymphokines and is indicative of utility in the treatment of arthritic patients.
`Cc1cc(C)nc(NC=CC=O)c1` [AI, 1-formyl-2-(4,6-dimethylpyrid-2-ylamino)ethene] showed a 50% effective dose (ED50) of 5.2 mg/kg.

Consider `Cn1cc(C(N)=O)ccc1=NC=C(S(=O)(=O)c1ccccc1)S(=O)(=O)c1ccccc1` [AP, 2-[2,2-bis(phenylsulphonyl)ethen-1-ylimino]-5-carbamoyl-1-methylpyridine], for which the ED50 was less than 10 mg/kg.

`O=S(=O)(C(=CNc1nccnn1)S(=O)(=O)c1ccccc1)c1ccccc1` [C, 1,1-bis(phenylsulphonyl)-2-(1,2,4-triazin-3-ylamino)ethene] had an ED50 of 2 mg/kg.

The compound `O=S(=O)(C(=CNc1nccs1)S(=O)(=O)c1ccccc1)c1ccccc1` [Compound A, 1,1-bis(phenylsulphonyl)-2-(thiazol-2-ylamino)ethene] displayed a 50% effective dose (ED50) of 10 mg/kg.

`O=[N+]([O-])c1ccc(N(C=CS(=O)(=O)c2ccccc2)c2ccc(Br)cn2)cc1` [Compound BE, 1-[N-(5-bromopyrid-2-yl)-N-(4-nitrophenyl)]amino-2-phenylsulphonylethene] came in with a median effective dose (ED50) of 4.4 mg/kg.

For the compound `Cc1cc(NC=C(S(=O)(=O)c2ccccc2)S(=O)(=O)c2ccccc2)nc(C)n1` [H, 1-(2,6-dimethylpyrimidin-4-ylamino)-2,2-bis(phenylsulphonyl)ethene], the 50% effective dose (ED50) was less than 10 mg/kg.

`CS(=O)(=O)C(C#N)=CNc1ccc(Br)cn1` [N, 2-(5-bromopyrid-2-ylamino)-1-cyano-1-methylsulphonylethene] gave an ED50 of 28 mg/kg.

With `CC(=O)C(=CNc1ccc(Br)cn1)S(=O)(=O)c1ccccc1` [O, 1-acetyl-2-(5-bromopyrid-2-ylamino)-1-phenylsulphonylethene], the ED50 came out at 14 mg/kg. This ED50 is about 2-fold lower than that of the compound before.

On to `O=S(=O)(C(=CNCc1ccccc1)S(=O)(=O)c1ccc(Cl)cc1)c1ccc(Cl)cc1` [V, 2-benzylamino-1,1-bis(4-chlorophenylsulphonyl)ethene], for which the ED50 was less than 10 mg/kg.

Regarding `O=S(=O)(C(=CNCc1ccccn1)S(=O)(=O)c1ccc(Cl)cc1)c1ccc(Cl)cc1` [W, 1,1-bis(4-chlorophenylsulphonyl)-2-(pyrid-2-ylmethylamino)ethene], the ED50 is less than 10 mg/kg.

The compound `O=S(=O)(C(=CNc1ccccc1)S(=O)(=O)c1ccccc1)c1ccccc1` [Z, 1-phenylamino-2,2-bis(phenylsulphonyl)ethene] showed an ED50 of 2 mg/kg.

A further assay has as its system delayed-type hypersensitivity (Type IV hypersensitivity reaction), foot pad swelling. Description: delayed-type hypersensitivity (DTH) test, foot pad swelling. Particulars: mice, dose 10 mg/kg animal body weight. Type of assay: in vivo. The source says:
Compounds of formula I were also submitted to the delayed-type hypersensitivity (DTH) test, which is an in-vivo model of cellular immunity (Type IV hypersensitivity reaction) which is suppressed by antirheumatic drugs. Previously sensitised mice receive antigen challenge (using methylated bovine serum albumen) by foot pad injection and the resulting foot pad swelling is compared in control animals and animals treated with compounds of formula I.
Regarding `O=S(=O)(C(=CNc1cnc2ccccc2c1)S(=O)(=O)c1ccccc1)c1ccccc1` [E, 1,1-bis(phenylsulphonyl)-2-(quinol-3-ylamino)ethene], the “% inhibition” value is recorded as 38%.

In the case of `O=S(=O)(C(=CNc1ccc2ccccc2n1)S(=O)(=O)c1ccccc1)c1ccccc1` [G, 1,1-bis(phenylsulphonyl)-2-(quinol-2-ylamino)ethene], the “% inhibition” value is given as 30%.

The same assay, now with this note: mice, dose 40 mg/kg animal body weight.
In the case of `NC(=O)c1cnc(NC=C(S(=O)(=O)c2ccccc2)S(=O)(=O)c2ccccc2)cn1` [I, 1-(5-carbamoylpyrazin-2-ylamino)-2,2-bis(phenylsulphonyl)ethene], the “% inhibition” value was 30%.

Still in this assay, the particulars now being: mice, dose 50 mg/kg animal body weight.
For the compound `O=S(=O)(C(=CNc1nc2ccccc2s1)S(=O)(=O)c1ccccc1)c1ccccc1` [D, 1-(benzothiazol-2-ylamino)-2,2-bis(phenylsulphonyl)ethene], the “% inhibition” value was found to be 27%.

`O=S(=O)(C(=CNc1cnc2ccccc2c1)S(=O)(=O)c1ccccc1)c1ccccc1` [E, 1,1-bis(phenylsulphonyl)-2-(quinol-3-ylamino)ethene]: the “% inhibition” value was determined as 15%.

Take `O=S(=O)(C(=CNc1ccc2ccccc2n1)S(=O)(=O)c1ccccc1)c1ccccc1` [G, 1,1-bis(phenylsulphonyl)-2-(quinol-2-ylamino)ethene]: the “% inhibition” value was 24%.

The test system of a further assay is lipoxygenase. The experiment in a line: inhibition of lipoxygenase in vitro. Type of assay: biochemical. Particulars: 0.0001M. The source says:
For example, in tests in vitro at concentrations of 0.0001M, a compound of formula I inhibited lipoxygenase by the percentage shown in the following Table III.
With `CCOC(=O)C(=CNc1ncccc1C)C(=O)OCC` [Compound AM, 1,1-bis(ethoxycarbonyl)-2-(3-methylpyrid-2-ylamino)ethene], the “% inhibition of lipoxygenase” value worked out at 62%.
